Data published in patent US9657351B2, “MRNA-based gene expression for personalizing patient cancer therapy with an MDM2 antagonist” (Hoffmann-La Roche Inc., priority 2013, dated 2017).

Tests used:
[1] = system: Ki-67-positive tumor cells; experiment: NP21280 solid tumor trial, tumor biopsy biomarker (Ki67); format: in vivo, human; conditions: p=2.62×10−2
Procedure: The predictive mRNA signature is also evaluated in two solid tumor trials (FIG. 1). In trial NP21280 30 patients with pretreatment and C1D5 tumor biopsy samples are evaluated; and in NP22890 20 patients with pretreatment and C1D8 tumor biopsy samples are evaluated (Table 6). In both clinical trials, a biomarker package that enabled assessment of p53 pathway activation is assessed (p53 IHC, p21 IHC, MDM2 mRNA, and Ki67), MDM2 inhibition activates the P53 pathway and decreases cell proliferation.

HCC1395 = experiment: COMPOUND A In Vitro Assay; format: cell-based; conditions: Homo sapiens, Breast, mammary gland, TP53 Mutant
Excerpt: (§1) To generate an MDM2 antagonist therapy predictive signature, the response of MDM2 antagonist therapy in vitro with gene expression profiling (FIG. 1) is combined. A bank of 287 human cancer cell lines, collectively termed the Cell Lines for Oncology/Chugai ACcumulative Tumour EncycLopedia (CELLO/CACTEL), representing a broad array of diverse human cancer tumor types are subject to evaluation using several high-throughput genomic technology platforms. The mutational status of nucleic acids from each cell line is determined by exome sequencing. Messenger RNA (mRNA) expression levels at baseline, prior to MDM2 antagonist therapy, are obtained via RNA sequencing. MDM2 antagonist therapy COMPOUND A, sometimes referred to herein as RG7112, responses are obtained by assays known to those skilled in the art such as RNA sequencing and microarray measurement using Gene Chip Human Genome U133 Plus 2.0 Array. The MDM2 therapy responses are obtained by high throughout screening assays. Depending on their responses to COMPOUND A these cell lines are classified as either sensitive, defined as IC50<=1, or resistant, defined as IC50>=10.
(§2) 281 cells are treated with MDM2 antagonists and the IC50 (therapy response) is generated. The cell lines span a broad range of tumor cell types of derivation.

KMS-28BM = experiment: COMPOUND A In Vitro Assay; format: cell-based; conditions: Homo sapiens, Lymphocyte, TP53 Mutant
Excerpt: as §1, §2

BT-474 = experiment: COMPOUND A In Vitro Assay; format: cell-based; conditions: Homo sapiens, Breast, mammary gland, TP53 Mutant
Excerpt: as §1, §2

U-118 MG = experiment: COMPOUND A In Vitro Assay; format: cell-based; conditions: Homo sapiens, Brain, TP53 Mutant
Excerpt: as §1, §2

LS 174T = experiment: COMPOUND A In Vitro Assay; format: cell-based; conditions: Homo sapiens, LS174T
Excerpt: as §1, §2

HEL = experiment: COMPOUND A In Vitro Assay; format: cell-based; conditions: Homo sapiens, Lymphocyte, peripheral blood, TP53 Mutant
Excerpt: as §1, §2

NCI-H292 = experiment: COMPOUND A In Vitro Assay; format: cell-based; conditions: Homo sapiens, Lung, TP53 Wild type
Excerpt: as §1, §2

HPAF-II = experiment: COMPOUND A In Vitro Assay; format: cell-based; conditions: Homo sapiens, Pancreas, TP53 Mutant
Excerpt: as §1, §2

Calu-1 = experiment: COMPOUND A In Vitro Assay; format: cell-based; conditions: Homo sapiens, Lung, TP53 Wild type
Excerpt: as §1, §2

NCI-H1755 = experiment: COMPOUND A In Vitro Assay; format: cell-based; conditions: Homo sapiens, Lung, TP53 Mutant
Excerpt: as §1, §2

MEG-01 = experiment: COMPOUND A In Vitro Assay; format: cell-based; conditions: Homo sapiens, Leukemia, chronic myeloid, TP53 Mutant
Excerpt: as §1, §2

MDA-MB-361 = experiment: COMPOUND A In Vitro Assay; format: cell-based; conditions: Homo sapiens, Breast, mammary gland, TP53 Mutant
Excerpt: as §1, §2

NCI-H2029 = experiment: COMPOUND A In Vitro Assay; format: cell-based; conditions: Homo sapiens, Lung, TP53 Mutant
Excerpt: as §1, §2

HCT-15 = experiment: COMPOUND A In Vitro Assay; format: cell-based; conditions: Homo sapiens, Intestine, large, colon, TP53 Mutant
Excerpt: as §1, §2

10C9 = experiment: COMPOUND A In Vitro Assay; format: cell-based; conditions: Homo sapiens
Excerpt: as §1, §2

AsPC-1 = experiment: COMPOUND A In Vitro Assay; format: cell-based; conditions: Homo sapiens, ASPC1, Pancreas, TP53 Mutant
Excerpt: as §1, §2

HEC-151 = experiment: COMPOUND A In Vitro Assay; format: cell-based; conditions: Homo sapiens, Uterus, TP53 Mutant
Excerpt: as §1, §2

MDA-MB-468 = experiment: COMPOUND A In Vitro Assay; format: cell-based; conditions: Homo sapiens, Breast, mammary gland, TP53 Mutant
Excerpt: as §1, §2

SK-HEP-1 = experiment: COMPOUND A In Vitro Assay; format: cell-based; conditions: Homo sapiens
Excerpt: as §1, §2

SNU-1 = experiment: COMPOUND A In Vitro Assay; format: cell-based; conditions: Homo sapiens
Excerpt: as §1, §2

NCI-H2170 = experiment: COMPOUND A In Vitro Assay; format: cell-based; conditions: Homo sapiens, Lung, TP53 Mutant
Excerpt: as §1, §2

PA-1 = experiment: COMPOUND A In Vitro Assay; format: cell-based; conditions: Homo sapiens
Excerpt: as §1, §2

SK-ES-1 = experiment: COMPOUND A In Vitro Assay; format: cell-based; conditions: Homo sapiens, SK-ES1, Bone, TP53 Mutant
Excerpt: as §1, §2

RPMI-2650 = experiment: COMPOUND A In Vitro Assay; format: cell-based; conditions: Homo sapiens
Excerpt: as §1, §2

Caki-1 = experiment: COMPOUND A In Vitro Assay; format: cell-based; conditions: Homo sapiens
Excerpt: as §1, §2

BT-20 = experiment: COMPOUND A In Vitro Assay; format: cell-based; conditions: Homo sapiens, Breast, mammary gland, TP53 Mutant
Excerpt: as §1, §2

C-33 A = experiment: COMPOUND A In Vitro Assay; format: cell-based; conditions: Homo sapiens, Cervix, TP53 Mutant
Excerpt: as §1, §2

NUGC-4 = experiment: COMPOUND A In Vitro Assay; format: cell-based; conditions: Homo sapiens
Excerpt: as §1, §2

Detroit 562 = experiment: COMPOUND A In Vitro Assay; format: cell-based; conditions: Homo sapiens, Pharynx, TP53 Mutant
Excerpt: as §1, §2

D-283MED = experiment: COMPOUND A In Vitro Assay; format: cell-based; conditions: Homo sapiens, D283 Med, tissue NA, TP53 Wild type
Excerpt: as §1, §2

## CCOc1cc(C(C)(C)C)ccc1C1=N[C@@](C)(c2ccc(Cl)cc2)[C@@](C)(c2ccc(Cl)cc2)N1C(=O)N1CCN(CCCS(C)(=O)=O)CC1 [COMPOUND A]
[1]
  Ki-67-positive tumor cells change from baseline: decreased
HCC1395
  IC50: 20 µM
KMS-28BM
  IC50: 9 µM
BT-474
  IC50: 19 µM
U-118 MG
  IC50: 19 µM
LS 174T; LS 174T cells
  IC50: 0.6 µM
LS 174T; LS 174T, Intestine, large, colon, TP53 Wild type
  IC50: 0.59 µM
HEL
  IC50: 17 µM
NCI-H292
  IC50: 1.6 µM
HPAF-II
  IC50: 10 µM
Calu-1
  IC50: 14 µM
NCI-H1755
  IC50: 7.8 µM
MEG-01
  IC50: 17 µM
MDA-MB-361
  IC50: 21 µM
NCI-H2029
  IC50: 5.8 µM
HCT-15
  IC50: 7.6 µM
10C9; 10C9, Lymphocyte B, TP53 Mutant
  IC50: 19 µM
10C9; 10C9 cells
  IC50: 19 µM
AsPC-1
  IC50: 19 µM
HEC-151
  IC50: 2.2 µM
MDA-MB-468
  IC50: 10 µM
SK-HEP-1; SK-HEP1, SK-HEP-1, Liver, TP53 Wild type
  IC50: 0.22 µM
SK-HEP-1; SK-HEP1, SK-HEP-1 cells
  IC50: 0.2 µM
SNU-1; SNU1, SNU-1, Stomach, TP53 Wild type
  IC50: 0.37 µM
SNU-1; SNU1, SNU-1 cells
  IC50: 0.4 µM
NCI-H2170
  IC50: 12 µM
PA-1; PA-1, PA-1, Ovary, TP53 Wild type
  IC50: 0.62 µM
PA-1; PA-1, PA-1 cells
  IC50: 0.6 µM
SK-ES-1
  IC50: 25 µM
RPMI-2650; RPMI-2650, RPMI-2650, Nasal septum, TP53 Wild type
  IC50: 0.77 µM
RPMI-2650; RPMI-2650, RPMI-2650 cells
  IC50: 0.8 µM
Caki-1; CAKI-1, Caki-1, Kidney, TP53 Wild type
  IC50: 0.37 µM
Caki-1; CAKI-1, Caki-1 cells
  IC50: 0.4 µM
BT-20
  IC50: 3.6 µM
C-33 A
  IC50: 18 µM
NUGC-4; NUGC-4, NUGC-4, Stomach, TP53 Wild type
  IC50: 0.38 µM
NUGC-4; NUGC-4, NUGC-4 cells
  IC50: 0.4 µM
Detroit 562
  IC50: 6.2 µM
D-283MED
  IC50: 1.2 µM
